Test results published in ChEMBL document CHEMBL2406989, “Design, synthesis and preliminary evaluation of a series of histone deacetylase inhibitors carrying a benzodiazepine ring” (Eur J Med Chem, 2013).

What was measured:
[1] = tested on: NB-4; assay: Induction of apoptosis in human NB4 cells after 48 hrs by Annexin V test; type: functional, cell-based; conditions: NB-4, 48 h
[2] = target: Histone deacetylase 1 (Homo sapiens, UniProt Q13547); assay: Inhibition of full length His-tagged human recombinant HDAC1 expressed in baculovirus system using fluor de Lys as substrate by fluorometric analysis
[3] = tested on: K562; assay: Antiproliferative activity against human K562 cells after 72 hrs by CellTiter-Glo assay; type: functional, cell-based; conditions: K562, 72 h
[4] = target: T1, Protein deacetylase HDAC6 (Homo sapiens, UniProt Q9UBN7); assay: Inhibition of full length His-tagged human recombinant HDAC6 expressed in baculovirus system using fluor de Lys as substrate by fluorometric analysis
T1 sequence (Q9UBN7 whole entry): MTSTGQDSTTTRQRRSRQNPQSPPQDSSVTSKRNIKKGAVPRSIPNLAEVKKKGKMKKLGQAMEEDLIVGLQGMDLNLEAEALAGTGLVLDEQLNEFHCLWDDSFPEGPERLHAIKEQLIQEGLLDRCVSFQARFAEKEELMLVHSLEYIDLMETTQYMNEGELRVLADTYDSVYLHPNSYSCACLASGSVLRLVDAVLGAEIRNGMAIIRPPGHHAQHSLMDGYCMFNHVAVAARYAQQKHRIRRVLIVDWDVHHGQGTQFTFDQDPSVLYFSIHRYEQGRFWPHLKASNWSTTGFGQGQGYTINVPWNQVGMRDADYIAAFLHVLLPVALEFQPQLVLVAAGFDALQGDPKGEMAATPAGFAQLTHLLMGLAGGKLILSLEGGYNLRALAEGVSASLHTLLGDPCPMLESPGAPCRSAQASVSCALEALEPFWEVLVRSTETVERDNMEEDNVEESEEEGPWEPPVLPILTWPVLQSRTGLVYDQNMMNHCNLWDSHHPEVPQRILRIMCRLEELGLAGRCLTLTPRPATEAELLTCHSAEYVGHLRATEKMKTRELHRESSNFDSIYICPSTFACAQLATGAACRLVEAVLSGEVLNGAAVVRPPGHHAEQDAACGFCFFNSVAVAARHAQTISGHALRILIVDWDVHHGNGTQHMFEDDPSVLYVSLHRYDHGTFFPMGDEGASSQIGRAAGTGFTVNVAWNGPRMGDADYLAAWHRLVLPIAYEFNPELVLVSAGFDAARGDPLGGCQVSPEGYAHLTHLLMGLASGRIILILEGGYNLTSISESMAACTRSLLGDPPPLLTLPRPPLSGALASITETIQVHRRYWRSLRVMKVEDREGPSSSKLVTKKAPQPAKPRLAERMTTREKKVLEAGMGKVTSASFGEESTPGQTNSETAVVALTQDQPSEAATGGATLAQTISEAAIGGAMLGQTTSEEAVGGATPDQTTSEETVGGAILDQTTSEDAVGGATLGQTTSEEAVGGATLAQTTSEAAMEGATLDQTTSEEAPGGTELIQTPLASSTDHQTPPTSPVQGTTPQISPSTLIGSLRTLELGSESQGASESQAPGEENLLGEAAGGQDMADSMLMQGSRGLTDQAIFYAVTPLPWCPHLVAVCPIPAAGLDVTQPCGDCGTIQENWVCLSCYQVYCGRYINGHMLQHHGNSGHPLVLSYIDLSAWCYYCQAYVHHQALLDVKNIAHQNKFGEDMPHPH

[5] = tested on: HCT-116; assay: Antiproliferative activity against human HCT116 cells after 72 hrs by CellTiter-Glo assay; type: functional, cell-based; conditions: HCT-116, 72 h
[6] = target: Histone deacetylase; assay: Inhibition of HDAC in human HeLa cell extract using fluor de Lys as substrate after 15 mins by fluorometric analysis; type: protein assay
[7] = target: Histone deacetylase (Homo sapiens) (UniProt Q13547+O15379+Q9UBN7+Q92769+Q9UQL6+Q8WUI4+Q9BY41+Q96DB2+P56524+Q9UKV0+Q969S8); conditions: HeLa, at 1 µM
Description: Inhibition of HDAC in human HeLa cell extract using fluor de Lys as substrate at 1 uM after 15 mins by fluorometric analysis

[8] = tested on: A549; assay: Antiproliferative activity against human A549 cells after 72 hrs by CellTiter-Glo assay; type: functional, cell-based; conditions: A549, 72 h

Sequence of Histone deacetylase 1 (Q13547 whole entry): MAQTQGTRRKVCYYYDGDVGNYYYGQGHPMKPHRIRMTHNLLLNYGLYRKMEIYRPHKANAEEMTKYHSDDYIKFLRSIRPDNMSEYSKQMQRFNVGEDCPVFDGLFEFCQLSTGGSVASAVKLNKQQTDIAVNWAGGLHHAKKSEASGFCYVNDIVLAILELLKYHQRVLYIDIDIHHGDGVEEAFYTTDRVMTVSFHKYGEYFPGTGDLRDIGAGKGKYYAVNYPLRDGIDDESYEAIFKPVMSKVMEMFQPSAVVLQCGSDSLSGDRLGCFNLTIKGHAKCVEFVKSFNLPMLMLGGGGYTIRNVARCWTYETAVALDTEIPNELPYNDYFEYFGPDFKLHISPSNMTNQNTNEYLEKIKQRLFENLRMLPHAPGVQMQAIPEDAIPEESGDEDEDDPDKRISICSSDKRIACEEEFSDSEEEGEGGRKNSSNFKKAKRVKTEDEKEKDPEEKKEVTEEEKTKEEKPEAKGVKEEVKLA

SMILES	IC50 [1]	IC50 [2]	IC50 [3]	IC50 [4]	IC50 [5]	IC50 [6]	inhibition [7]	IC50 [8]
O=C(CCCCCCC(=O)N1CCN=C(c2ccccc2)c2ccccc21)NO	3990 nM	250 nM	1670 nM	1120 nM	1440 nM	180 nM	82%	2540 nM
CN1C(=O)CN=C(c2ccccc2)c2cc(C#CCCCC(=O)NO)ccc21	1950 nM		4970 nM		2620 nM		39%	5950 nM
CN1C(=O)CN=C(c2ccccc2)c2cc(C#CCCCCC(=O)NO)ccc21	4090 nM	1900 nM	2670 nM	5900 nM	1860 nM		36%	2690 nM
CN1C(=O)C(NC(=O)CCCCCCCC(=O)NO)N=C(c2ccccc2)c2ccccc21 (racemic)	4000 nM	480 nM	4590 nM	9080 nM	3930 nM	600 nM	57%	7950 nM
CN1C(=O)C(N)N=C(c2ccccc2)c2cc(C#CCCCC(=O)NO)ccc21 (racemic)		1090 nM		> 100000 nM				
CN1C(=O)C(NC(=O)CCCCCC(=O)NO)N=C(c2ccccc2)c2ccccc21 (racemic)	2560 nM	270 nM	1840 nM	180 nM	1440 nM	320 nM	73%	4420 nM
